Experimental data as given in PMC10341658, “In Silico Screening and Anticancer-Apoptotic Evaluation of Newly Synthesized Thienopyrimidine/Sulfonamide Hybrids” (International Journal of Molecular Sciences, 2023).

Legend:
MCF-7 = assay: MTT anti-proliferative assay, MCF-7; type: cell-based, human; conditions: for IC50: 72 h of exposure, MTT, mean ± S.D. of three observations; for selectivity index (SI) MCF-7: IC50 MCF 10A/IC50 MCF-7, 72 h of exposure
Method: (§1) The cytotoxic effect of the synthesized compounds was estimated against human breast cancer cell lines (MCF-7 and MDA-MB231).
(§2) MTT (3-[4,5-dimethylthiazol-2-yl]-2,5 diphenyltetrazolium bromide) assay was used to study the anticancer activity of all derivatives against breast cancer cells MCF-7and MDAMB231 (obtained from ATCC, Manassas, VA, USA). […] Briefly, cells plated onto 96-well plates (5000 cells/well) were allowed to adhere and form a semi-confluent monolayer. After 24 h, the cells were treated with different concentrations of derivatives (0–100 µM) for 72 h. After the exposure, cytotoxicity was assessed following the MTT Assay Kit protocol (Abcam, Cambridge, UK) as reported earlier.

MDA-MB-231 = assay: MTT anti-proliferative assay, MDA-MB-231; type: cell-based, human; conditions: for IC50: Homo sapiens, MDA-MB-231, 72 h of exposure, MTT, mean ± S.D. of three observations; for selectivity index (SI) MDA-MB231: IC50 MCF 10A/IC50 MDA-MB231, 72 h of exposure
Method: as §1, §2

[1] = system: MCF-10A (Non-Tumorigenic Cells); assay: MTT cytotoxicity on non-tumorigenic MCF-10A cells; type: cell-based; conditions: Homo sapiens, 72 h of exposure, mean ± S.D. of three observations
Method: as §2, with “After 24 h, the cells were treated with different concentrations of derivatives (0–100 µM) for 72 h.” left out
The selectivity ratio in non-cancerous cells (MCF10A) versus cancer cells (MCF-7 and MDAmb231) was calculated as reported in [26, 27] using the following equation: SI = IC50 of normal cells/IC50 of cancer cells.

FGFR-1 = target: T1, FGFR-1 (Homo sapiens, UniProt P11362); assay: FGFR-1 inhibitory activity (FGFR-1 ELISA Kit, MDA-MB-231 cell lysates); type: biochemical
T1 construct: host or cells: MDA-MB-231
T1 sequence (P11362 22-822): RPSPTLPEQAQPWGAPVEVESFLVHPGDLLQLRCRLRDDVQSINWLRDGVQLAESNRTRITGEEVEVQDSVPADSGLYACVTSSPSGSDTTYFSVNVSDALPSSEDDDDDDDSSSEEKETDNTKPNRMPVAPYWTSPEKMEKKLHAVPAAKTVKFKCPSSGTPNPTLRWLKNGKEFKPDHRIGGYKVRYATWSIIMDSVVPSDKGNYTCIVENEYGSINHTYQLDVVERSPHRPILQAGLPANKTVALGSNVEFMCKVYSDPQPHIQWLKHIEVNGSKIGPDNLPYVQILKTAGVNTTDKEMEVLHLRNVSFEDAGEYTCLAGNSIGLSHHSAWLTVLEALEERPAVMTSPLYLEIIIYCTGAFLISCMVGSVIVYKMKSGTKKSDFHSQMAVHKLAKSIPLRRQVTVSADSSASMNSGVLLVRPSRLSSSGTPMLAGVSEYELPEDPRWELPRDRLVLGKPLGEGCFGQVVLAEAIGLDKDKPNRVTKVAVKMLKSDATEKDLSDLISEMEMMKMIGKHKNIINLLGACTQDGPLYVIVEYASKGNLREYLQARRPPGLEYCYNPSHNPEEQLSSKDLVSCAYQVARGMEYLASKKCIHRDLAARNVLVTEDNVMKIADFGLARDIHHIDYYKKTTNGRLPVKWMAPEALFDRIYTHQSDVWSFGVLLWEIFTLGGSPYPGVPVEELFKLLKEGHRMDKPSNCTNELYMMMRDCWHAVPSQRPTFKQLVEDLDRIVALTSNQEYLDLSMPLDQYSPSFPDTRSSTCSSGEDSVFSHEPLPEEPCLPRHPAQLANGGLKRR
Method: To determine basal FGFR-1 activity, a FGFR-1 ELISA Kit was used according to the protocol of the manufacturer (G-Biosciences, Saint Louis, MO, USA). […] After 90 min of incubation at 37 °C, 100 μL Biotinylated Detection Antibody was added and incubated for 60 min. After washing twice each with washing buffer, 100 μL ELISA Detection Reagent was added to each well and incubated for 30 min. After washing, 90 μL of Detection Substrate (TMB) was added to visualize the enzymatic reaction. TMB was catalyzed to produce a blue color that changed into yellow after adding 50 μL of acidic stop solution. The density of yellow is directly proportional to the concentration of FGFR-1 captured on the plate using a Varioskan TM LUX multimode microplate reader (Thermo Scientific, Waltham, MA, USA).

Caspase-3 = Caspase-3 colorimetric activity assay (Ac-DEVD-pNA) in MDA-MB-231 cells; type: cell-based, human; conditions: predetermined IC50 of compound, 24 h
Method: To further explore the cytotoxicity of the prepared hybrids, their influence on Caspase-3 activity was examined. MDA-MB-231 cells were incubated with the predetermined IC50s of tested compounds for a duration of 24 h.
Caspase-3 activity was assessed with a colorimetric assay based on the hydrolysis of acetyl–Asp–Glu–Val–Asp p-nitroanilide (Ac-DEVD-pNA) by Caspase-3 and releasing p-nitroaniline (pNA). MDA-MB-231 cell lysates (100 ng/mL) were diluted and subjected to analysis via Caspase-3 Colorimetric Assay Kit (Sigma-Aldrich, Saint Louis, MO, USA) based on the protocol of the manufacturer. The reaction for color development was held at 37 °C for 2 h, and the value of OD405 was determined using a Varioskan TM LUX multimode microplate reader (Thermo Scientific, Waltham, MA, USA). Each caspase-3 activity was expressed as a value of OD405.

MDA-MB-231 cells = assay: Annexin V-FITC/PI flow cytometric apoptosis analysis; type: cell-based, human; conditions: MDA-MB-231, Annexin V-FITC/PI, predetermined IC50
Method: Apoptosis and necrosis are two routes that make up the overall division of the cell death pathway carried out by anticancer agents. A double labeling flow cytometry assay using Annexin V-FITC/propidium iodide was performed to identify which mechanism, necrosis, or apoptosis is responsible for cell death.
Apoptosis was detected after 48 h of cell culture using V-FITC apoptosis detection kit (BD Pharmingen TM, Franklin Lakes, NJ, USA). […] After treatment, cells were collected, washed with ice-cold PBS and centrifuged at 200× g for 5 min. The cell pellet was suspended in 200 μL of annexin V-FITC/PI solution for 15 min in the dark. The stained and Annexine V propidium iodide negative cells were evaluated via CytoFLEX flow cytometry (Beckman Coulter, Brea, CA, USA). Ten thousand cells (gated events) were captured for each sample. The mean fluorescence intensity was analyzed with Cytoexpert (Beckman Coulter).

What does the source list for `CCOC(=O)c1sc2ncnc(Cl)c2c1C` [Compound 3b]?
IC50 (MCF-7): 9.74 ± 0.13 µM; IC50 (MCF-7; Homo sapiens, MCF7, 72 h): < 10 µM; selectivity index (SI) MCF-7 (MCF-7): 27.20; IC50 (MDA-MB-231): 4.45 ± 0.31 µM; selectivity index (SI) MDA-MB231 (MDA-MB-231): 59.45; IC50 [1]: 265 ± 4.2 µM; IC50 (FGFR-1): 179 ± 5.6 µM; Caspase-3 activity fold change vs control cells (Caspase-3): 2.3 fold; increase of population of late apoptotic cells (MDA-MB-231 cells): 4.8 fold; increase of population of necrotic cells (MDA-MB-231 cells): 5.5 fold

How did the IC50 (MCF-7; Homo sapiens, MCF7, 72 h) turn out when `Cc1cc(NS(=O)(=O)c2ccc(Nc3ncnc4sc5c(c34)CCCC5)cc2)no1` [Compound 4aiii, N-(5-methylisoxazol-3-yl)-4-((5,6,7,8-tetrahydrobenzo[4,5]thieno[2,3-d]pyrimidin-4-yl)amino)benzenesulfonamide] was run?
Its IC50 is 67.1 ± 15.7 µM.

And the “selectivity index (SI) MCF-7” value (MCF-7)?
Its value is 1.32.

What about the IC50 (MDA-MB-231) of the same molecule?
The IC50 was 68.3 ± 4.6 µM.

What about the “selectivity index (SI) MDA-MB231” value (MDA-MB-231) of the same molecule?
Its value is 1.29.

What about the IC50 [1] of the same molecule?
The IC50 was 88.5 ± 10.1 µM.

What about the IC50 (FGFR-1) of the same molecule?
Its IC50 is 159 ± 5.3 µM.

With `COc1cccc2c1C(=O)c1c(O)c3c(c(O)c1C2=O)C[C@@](O)(C(=O)CO)C[C@@H]3O[C@H]1C[C@H](N)[C@H](O)[C@H](C)O1` [Doxorubicin, reference compound] as the molecule, how does the IC50 (MCF-7; Homo sapiens, MCF7, 72 h) read?
Its IC50 is 1.6 ± 2.2 µM.

What about the IC50 (MDA-MB-231) of the same molecule?
Its IC50 is 2.2 ± 0.3 µM.

For `CCOC(=O)c1sc2ncnc(Nc3ccc(S(=O)(=O)Nc4ncccn4)cc3)c2c1C` [Compound 4bii, Ethyl-5-methyl-4-((4-(N-(pyrimidin-2-yl)sulfamoyl)phenyl)amino)thieno[2,3-d]pyrimidine-6-carboxylate], which IC50 (MCF-7; Homo sapiens, MCF7, 72 h) is on record?
The IC50 was 14 ± 8.2 µM.

And the “selectivity index (SI) MCF-7” value (MCF-7)?
Its value is 16.45.

What about the IC50 (MDA-MB-231) of the same molecule?
The IC50 was 15.57 ± 0.1 µM.

And the “selectivity index (SI) MDA-MB231” value (MDA-MB-231)?
Its value is 14.77.

What about the IC50 [1] of the same molecule?
Its IC50 is 230 ± 24.1 µM.

What about the IC50 (FGFR-1) of the same molecule?
Its IC50 is 289 ± 12 µM.

Which IC50 (MCF-7; Homo sapiens, MCF7, 72 h) does the source give for `N=C(N)NS(=O)(=O)c1ccc(Nc2ncnc3sc4c(c23)CCCC4)cc1` [Compound 4ai, N-carbamimidoyl-4-((5,6,7,8-tetrahydrobenzo[4,5]thieno[2,3-d]pyrimidin-4-yl)amino) benzenesulfonamide] here?
The IC50 was 35.8 ± 1.2 µM.

What about the “selectivity index (SI) MCF-7” value (MCF-7) of the same molecule?
The value was 12.79.

And the IC50 (MDA-MB-231)?
Its IC50 is 40.2 ± 2.7 µM.

And the “selectivity index (SI) MDA-MB231” value (MDA-MB-231)?
Its value is 11.40.

What about the IC50 [1] of the same molecule?
The IC50 was 458 ± 12.3 µM.

And the IC50 (FGFR-1)?
The IC50 was 132 ± 4.3 µM.

What does the source list for `CCOC(=O)c1sc2ncnc(Nc3ccc(S(=O)(=O)Nc4cc(C)on4)cc3)c2c1C` [Compound 4biii, Ethyl-5-methyl-4-((4-(N-(5-methylisoxazol-3-yl)sulfamoyl)phenyl)amino) thieno[2,3-d]pyrimidine-6-carboxylate]?
IC50 (MCF-7): 9.54 ± 3.1 µM; IC50 (MCF-7; Homo sapiens, MCF7, 72 h): < 10 µM; selectivity index (SI) MCF-7 (MCF-7): 25.62; IC50 (MDA-MB-231): 17.6 ± 2.3 µM; selectivity index (SI) MDA-MB231 (MDA-MB-231): 13.86; IC50 [1]: 244.5 ± 1.9 µM; IC50 (FGFR-1): 168 ± 8.3 µM

For `O=S(=O)(Nc1ncccn1)c1ccc(Nc2ncnc3sc4c(c23)CCCC4)cc1` [Compound 4aii, N-(pyrimidin-2-yl)-4-((5,6,7,8-tetrahydrobenzo[4,5]thieno[2,3-d]pyrimidin-4-yl)amino)benzenesulfonamide], which IC50 (MCF-7; Homo sapiens, MCF7, 72 h) is on record?
The IC50 was 22.3 ± 3.1 µM.

What about the IC50 (MDA-MB-231) of the same molecule?
The IC50 was 20.2 ± 1.5 µM.

And the IC50 [1]?
The IC50 was over 1000 µM.

What about the IC50 (FGFR-1) of the same molecule?
Its IC50 is 119 ± 5.6 µM.

What does the source list for `CCOC(=O)c1sc2ncnc(Nc3ccc(S(=O)(=O)NC(=N)N)cc3)c2c1C` [Compound 4bi, Ethyl-4-((4-(N-carbamimidoylsulfamoyl)phenyl)amino)-5-methylthieno[2,3-d]pyrimidine-6-carboxylate]?
IC50 (MCF-7): 6.17 ± 1.3 µM; IC50 (MCF-7; Homo sapiens, MCF7, 72 h): < 10 µM; selectivity index (SI) MCF-7 (MCF-7): 44.86; IC50 (MDA-MB-231): 8.68 ± 4.3 µM; selectivity index (SI) MDA-MB231 (MDA-MB-231): 31.90; IC50 [1]: 277 ± 7.9 µM; IC50 (FGFR-1): 326 ± 7.4 µM
